Laboratory results taken from patent US7300770B2, “Detection of microbe contamination on elastomeric articles” (Kimberly-Clark Worldwide, Inc., priority 2004, dated 2007).
Values joined by “and” are separate entries in the source; they are usually repeats but may differ in a detail not shown here. Equal entries are not always repeated.

Columns and labels:
[1] = system: aged, pooled female urine; assay: Bacterial quantification of aged pooled female urine by dye titration; conditions: 100 microliters urine
From the text: Table 2 presents the volume of each dye solution required for the dye color to remain steady.

[2] = system: aged chicken juice known to have a high bacterial count; assay: Dye coating with or without TWEEN 80 on ceramic surface exposed to aged chicken juice; conditions: coating with TWEEN 80 surfactant; 80 mg/10 mL acetonitrile
From the text: This solution was then used to coat a ceramic surface and allowed to air dry. […] After drying, a drop of aged chicken juice known to have a high bacterial count was placed on the each coating area. […] Furthermore, the addition of TWEEN® surfactant allowed for easy removal of the dye from the surface.

[3] = Reichardt's dye and TMB coated towel exposed to dilute bleach; conditions: towel coated with mixture of Reichardt's dye and TMB
S. aureus [4] = assay: Color change of Reichardt's dye-treated elastomeric gloves on contact with S. aureus; conditions: natural rubber latex glove; 160 mg dye/10 mL acetonitrile; 10^7 CFU/mL S. aureus
From the text: Specifically, a solution of Reichardt's dye (160 milligrams per 10 milliliters of acetonitrile) was brushed onto a piece of a natural rubber latex glove (commercially available from Kimberly-Clark Corp.). A 100-microliter drop of 10^7 CFU/mL S. aureus was then applied to the surface of the glove and gently spread using a disposable pipette. Thereafter, a finger of a second natural rubber latex glove (commercially available from Kimberly-Clark Corp.) was dipped into a solution of Reichardt's dye (160 milligrams per 10 milliliters of acetonitrile). After drying, the fingers of the second glove were used to spread bacteria from the S. aureus droplet placed onto the piece of latex glove to another area on the latex piece.

A. niger = assay: Titration of microorganisms with Reichardt's dye on cellulosic towel; conditions: mold, 10^5
aged raw chicken juice = assay: Dye spray on aged raw chicken juice pattern and re-colorization with 1 N NaOH
S. aureus [5] = assay: Titration of serially diluted S. aureus suspensions on paper towel with dye
From the text: 100 microliters of serially diluted S. aureus bacterial suspensions were placed onto a SCOTT® paper towel. Drops (10 microliters) of the Reichardt's dye in acetonitrile solution (40 milligrams/10 milliliters) were then pipetted onto each spot where the bacteria was placed. The dye solution changed color in less than 1 second. […] This was repeated on each spot corresponding to where different concentrations of bacteria were placed.

C. albicans = assay: Titration of microorganisms with Reichardt's dye on cellulosic towel; conditions: yeast, 10^7 CFU/mL, 100 microliters
P. aeruginosa = assay: Delta E of dye-coated paper and label substrates versus bacteria concentration
From the text: (§1) More specifically, indicator strips coated with Reichardt's dye were exposed with decreasing amounts of the bacteria aliquots. A hand-held spectrophotometer was used to after application of each aliquot to determine “Delta E” value (calculated using L*, A*, and B* values) for each CFU/mL concentration. The results are set forth below in Table 4 (for paper) and Table 5 (for label). From the above, standard detection curves were generated as shown in FIGS. 5-7 for S. aureus, P. aeruginosa, and E. coli, respectively. As shown, each type of bacteria changed the color of the dye-treated substrate in a slightly different way, creating a unique standard curve. Thereafter, drops of unknown bacteria concentrations were placed on the stickers and a spectrophotometer was used to measure the “Delta E” of the resulting color. The numerical values obtained for each unknown sample set forth below in Tables 6-7. […] Although a few of the results were not completely accurate, the present inventors believe that improving the uniformity of the coating would further enhance detection accuracy.

S. aureus [6] = assay: as above
From the text: as §1

vaccinia = conditions: undiluted virus, 50 microliters, 3 minutes
E. coli = assay: Reichardt's dye and TMB coated towel exposed to E. coli suspension; conditions: towel coated with Reichardt's dye and TMB
[7] = system: juice from the aged chicken (high bacterial levels); assay: Isopropanol dye spray on doorknob marked with aged chicken juice; conditions: 160 mg dye in 10 mL isopropanol, sprayed
From the text: Plastic doorknobs were utilized as a “real world” surface on which to test bacterial contamination. A raw chicken leg was initially aged at room temperature for several days to ensure high bacterial levels (referred to hereinafter as “aged chicken”). Juice from the aged chicken was then used to mark the surface of one of the knobs. The other door knob was left uncontaminated as a control. Both knobs were wiped. […] The isopropanol solution of the dye was sprayed on both surfaces.

[8] = system: Herpes Simplex Virus 1 (HSV-1); assay: Virus detection on Reichardt's dye-coated stickers; conditions: undiluted virus, 50 microliters, 3 minutes
[9] = Color change of dye with bacterial cell-wall compounds on paper towel; conditions: both experimental set-ups; 160 mg/10 mL acetonitrile
[10] = as above; set-up: species or system E. coli; Streptococcus faecalis; conditions: detoxified LPS, lipoteichoic acid
measles = assay: Virus detection on Reichardt's dye-coated stickers; conditions: undiluted virus, 50 microliters, 3 minutes
[11] = paper substrate, P. aeruginosa, log CFU/ml (actual) 3
[12] = paper substrate, S. aureus, log CFU/ml (actual) 5

For [O-]c1c(-c2ccccc2)cc(-[n+]2c(-c3ccccc3)cc(-c3ccccc3)cc2-c2ccccc2)cc1-c1ccccc1 [Reichardt's dye, 4-(2,4,6-triphenylpyridinium-1-yl)-2,6-diphenylphenolate], the “Volume of dye solution required for the dye color to remain steady” value ([1]; 4 mg/ml dye solution in acetonitrile) was 120 µL, the “Volume of dye solution required for the dye color to remain steady” value ([1]; 16 mg/ml dye solution in acetonitrile) was 30 µL and the “Time to color change” value [2] was 20 to 30 s. For the same compound, the “Color response to dilute bleach solution” value [3] was “de-colorizing”, the “Color change of glove piece and glove finger” value (S. aureus [4]) was “immediately changed” and the “Amount of Dye Required for Persistent Color” value (A. niger) was 50 µL. For the same compound, the “Dye added until the color persisted” value (Polio virus; 100 microliters undiluted virus, 80 mg/10 mL acetonitrile with or without TWEEN 80) was “approximately 9 drops”, the “Discharge of dye color on virus spot” value (Polio virus; surfactant- and non-surfactant-containing solutions) was “rapidly discharged” and the “Effect of 1 N NaOH on area that changed color” value (aged raw chicken juice; drop of 1 N NaOH) was “re-colorization of that small spot”. For the same compound, the “Color change with aged chicken juice pre-mixed with 1 molar NaOH” value (aged raw chicken juice; equal proportions, 30 seconds) was “rapid color change”, the “Time for dye solution to change color” value (S. aureus [5]; 10 microliter drops, 40 mg/10 mL acetonitrile, on S. aureus spots) was “less than 1 second” and the “Correlation of titration with level of bacterial contamination” value (S. aureus [5]; drops added until color remained steady) was “good correlation”. The “Amount of Dye Required for Persistent Color” value (C. albicans) was 70 µL, the “Delta E of unknown sample” value (P. aeruginosa; label substrate, P. aeruginosa, log CFU/ml (actual) 6) was 4.4954 and 4.1002 and the “Delta E (P. aeruginosa)” value (P. aeruginosa; label substrate, log CFU/ml 3) was 3.8787. The “Delta E (P. aeruginosa)” value (P. aeruginosa; label substrate, log CFU/ml 4) was 4.9473, the “Delta E (P. aeruginosa)” value (P. aeruginosa; label substrate, log CFU/ml 5) was 4.6519 and the “Delta E (P. aeruginosa)” value (P. aeruginosa; label substrate, log CFU/ml 6) was 4.2419. For the same compound, the “Delta E (P. aeruginosa)” value (P. aeruginosa; label substrate, log CFU/ml 7) was 6.9567, the “Delta E of unknown sample” value (P. aeruginosa; [11]) was 1.0267 and the “log CFU/ml (estimated)” value (P. aeruginosa; [11]) was 5. The “Delta E (P. aeruginosa)” value (P. aeruginosa; paper substrate, log CFU/ml 3) was 1.7900, the “Delta E (P. aeruginosa)” value (P. aeruginosa; paper substrate, log CFU/ml 4) was 2.2358 and the “Delta E (P. aeruginosa)” value (P. aeruginosa; paper substrate, log CFU/ml 5) was 1.7151. For the same compound, the “Delta E (P. aeruginosa)” value (P. aeruginosa; paper substrate, log CFU/ml 6) was 1.3193, the “Delta E (P. aeruginosa)” value (P. aeruginosa; paper substrate, log CFU/ml 7) was 4.9569 and the “Delta E of unknown sample” value (S. aureus [6]; label substrate, S. aureus, log CFU/ml (actual) 6) was 6.869 and 4.228. The “Delta E (S. aureus)” value (S. aureus [6]; label substrate, log CFU/ml 3) was 5.414, the “Delta E (S. aureus)” value (S. aureus [6]; label substrate, log CFU/ml 4) was 4.791 and the “Delta E (S. aureus)” value (S. aureus [6]; label substrate, log CFU/ml 5) was 6.92. For the same compound, the “Delta E (S. aureus)” value (S. aureus [6]; label substrate, log CFU/ml 6) was 6.908, the “Delta E (S. aureus)” value (S. aureus [6]; label substrate, log CFU/ml 7) was 18.62 and the “Delta E of unknown sample” value (S. aureus [6]; [12]) was 3.161. The “log CFU/ml (estimated)” value (S. aureus [6]; [12]) was 5, the “Delta E (S. aureus)” value (S. aureus [6]; paper substrate, log CFU/ml 3) was 1.867 and the “Delta E (S. aureus)” value (S. aureus [6]; paper substrate, log CFU/ml 4) was 2.074. The “Delta E (S. aureus)” value (S. aureus [6]; paper substrate, log CFU/ml 5) was 2.447, the “Delta E (S. aureus)” value (S. aureus [6]; paper substrate, log CFU/ml 6) was 3.876 and the “Delta E (S. aureus)” value (S. aureus [6]; paper substrate, log CFU/ml 7) was 11.73. For the same compound, the De-colorization of sticker (vaccinia) was “less than that observed for the other viruses”, the “Time to change color to a white spot” value (E. coli) was “less than 10 seconds” and the “Color change at contaminated area of doorknob” value [7] was “blue to colorless”. For the same compound, the De-colorization of sticker [8] was “stronger de-colorization of the sticker than that observed for Rhinovirus and Polio virus”, the “Color change of dye with muramic acid” value [9] was “near instantaneous color change” and the “Color change of dye with the other cell-wall compounds” value [10] was “eventual color change”. For the same compound, the De-colorization of sticker (measles) was “less than that observed for the other viruses”.
